Results taken from paper PMC11240139, “Exploring the antitumor potential of novel quinoline derivatives via tubulin polymerization inhibition in breast cancer; design, synthesis and molecular docking” (RSC Advances, 2024).

What was measured:
Type in all cases: cell-based
[1] = test system: OVCAR-3 (ovarian cancer); assay: NCI-60 SRB cytotoxicity screen; settings: Homo sapiens; OVCAR-3, single dose 10 μM; read-out: growth inhibition (GI%)
[2] = test system: T-47D (breast cancer); assay: NCI-60 SRB cytotoxicity screen; settings: Homo sapiens, T47D, single dose 10 μM, read-out: growth inhibition (GI%)
[3] = test system: HT29 (colon cancer); assay: NCI-60 SRB cytotoxicity screen; settings: Homo sapiens, HT-29; HT29, single dose 10 μM; read-out: growth inhibition (GI%)
[4] = test system: SF-539 (CNS cancer); assay: NCI-60 SRB cytotoxicity screen; settings: Homo sapiens; SF-539, single dose 10 μM; read-out: growth inhibition (GI%)
[5] = test system: NCI/ADR-RES (ovarian cancer); assay: NCI-60 SRB cytotoxicity screen; settings: Homo sapiens, single dose 10 μM, read-out: growth inhibition (GI%)
[6] = test system: K-562 (leukemia); assay: NCI-60 SRB cytotoxicity screen; settings: Homo sapiens; K-652 [sic], single dose 10 μM; read-out: growth inhibition (GI%)
[7] = test system: COLO 205 (colon cancer); assay: NCI-60 SRB cytotoxicity screen; settings: Homo sapiens; COLO 205, single dose 10 μM; read-out: growth inhibition (GI%)
[8] = test system: MOLT-4 (leukemia); assay: NCI-60 SRB cytotoxicity screen; settings: Homo sapiens; MOLT-4, single dose 10 μM; read-out: growth inhibition (GI%)
[9] = test system: HCT-116 (colon cancer); assay: NCI-60 SRB cytotoxicity screen; settings: Homo sapiens; HCT-116, single dose 10 μM; read-out: growth inhibition (GI%)
[10] = test system: SF-268 (CNS cancer); assay: NCI-60 SRB cytotoxicity screen; settings: Homo sapiens; SF-268, single dose 10 μM; read-out: growth inhibition (GI%)
[11] = test system: IGROV1 (ovarian cancer); assay: NCI-60 SRB cytotoxicity screen; settings: Homo sapiens, IGROV-1; IGROV1, single dose 10 μM; read-out: growth inhibition (GI%)
[12] = test system: A498 (renal cancer); assay: NCI-60 SRB cytotoxicity screen; settings: Homo sapiens; A498, single dose 10 μM; read-out: growth inhibition (GI%)
[13] = test system: 60 cancer cell lines (NCI); assay: NCI-60 single-dose screen, overall verdict over the panel; settings: single dose 10 μM, whole panel
Description: The cytotoxic activity of the synthesized quinoline derivatives was determined by the national cancer institute (NCI, Bethesda, Maryland, USA) against 60 different cancer cell lines at a single high dose (10^−5 M) in the full NCI 60 cell panel using the sulforhodamine B assay for cell viability evaluation. In summary, 5 × 10^3 cells were in 96-well plate and incubated in complete media for 24 h. Cells were treated with 100 μL of media containing each newly synthesized compound. After drug exposure, cells were fixed by replacing media with 150 μL of 10% TCA and incubated at 4 °C for 1 h. The TCA solution was removed, and the cells were washed 5 times with distilled water. Aliquots of 70 μL SRB solution (0.4% w/v) were added and incubated in a dark place at room temperature for 10 min. The plates were washed 3 times with 1% acetic acid and allowed to air-dry overnight. Then, 150 μL of TRIS (10 mM) was added to dissolve protein-bound SRB stain. The absorbance was measured at 540 nm.% Cytotoxicity = [1 − (AVx/AVNC)] × 100where AVx denotes the average absorbance of the sample well and AVNC denotes the average absorbance of the negative control.

[14] = test system: U251 (CNS cancer); assay: NCI-60 SRB cytotoxicity screen; settings: Homo sapiens, U-251; U251, single dose 10 μM; read-out: growth inhibition (GI%)
[15] = test system: SNB-19 (CNS cancer); assay: NCI-60 SRB cytotoxicity screen; settings: Homo sapiens; SNB-19, single dose 10 μM; read-out: growth inhibition (GI%)
[16] = test system: OVCAR-5 (ovarian cancer); assay: NCI-60 SRB cytotoxicity screen; settings: Homo sapiens; OVCAR-5, single dose 10 μM; read-out: growth inhibition (GI%)
[17] = test system: NCI-H23 (non-small cell lung cancer); assay: NCI-60 SRB cytotoxicity screen; settings: Homo sapiens; NCI-H23, single dose 10 μM; read-out: growth inhibition (GI%)
[18] = test system: HS 578T (breast cancer); assay: NCI-60 SRB cytotoxicity screen; settings: Homo sapiens, single dose 10 μM, read-out: growth inhibition (GI%)
[19] = test system: UO-31 (renal cancer); assay: NCI-60 SRB cytotoxicity screen; settings: Homo sapiens; UO-31, single dose 10 μM; read-out: growth inhibition (GI%)
[20] = test system: NCI-H226 (non-small cell lung cancer); assay: NCI-60 SRB cytotoxicity screen; settings: Homo sapiens; NCI-H226, single dose 10 μM; read-out: growth inhibition (GI%)
[21] = test system: SK-MEL-28 (melanoma); assay: NCI-60 SRB cytotoxicity screen; settings: Homo sapiens; SK-MEL-28, single dose 10 μM; read-out: growth inhibition (GI%)
[22] = test system: M14 (melanoma); assay: NCI-60 SRB cytotoxicity screen; settings: Homo sapiens; M14, single dose 10 μM; read-out: growth inhibition (GI%)
[23] = test system: DU-145 (prostate cancer); assay: NCI-60 SRB cytotoxicity screen; settings: Homo sapiens; DU-145, single dose 10 μM; read-out: growth inhibition (GI%)
[24] = test system: NCI-H322M (non-small cell lung cancer); assay: NCI-60 SRB cytotoxicity screen; settings: Homo sapiens, single dose 10 μM, read-out: growth inhibition (GI%)
[25] = test system: CCRF-CEM (leukemia); assay: NCI-60 SRB cytotoxicity screen; settings: Homo sapiens, single dose 10 μM, read-out: growth inhibition (GI%)
[26] = test system: SNB-75 (CNS cancer); assay: NCI-60 SRB cytotoxicity screen; settings: Homo sapiens, SNB-75, SNB-75, single dose 10 μM; read-out: growth inhibition (GI%)
[27] = test system: OVCAR-8 (ovarian cancer); assay: NCI-60 SRB cytotoxicity screen; settings: Homo sapiens; OVCAR-8, single dose 10 μM; read-out: growth inhibition (GI%)
[28] = test system: MDA-MB-231/ATCC (breast cancer); assay: NCI-60 SRB cytotoxicity screen; settings: Homo sapiens, MDA-MB-231, read-out: growth inhibition (GI%);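 note: growth inhibition in percent at a single 10 µM dose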
[29] = test system: LOX IMVI (melanoma); assay: NCI-60 SRB cytotoxicity screen; settings: Homo sapiens, single dose 10 μM, read-out: growth inhibition (GI%)
[30] = test system: SN12C (renal cancer); assay: NCI-60 SRB cytotoxicity screen; settings: Homo sapiens, single dose 10 μM, read-out: growth inhibition (GI%)
[31] = test system: MDA-MB-468 (breast cancer); assay: NCI-60 SRB cytotoxicity screen; settings: Homo sapiens; MDA-MB-468, single dose 10 μM; read-out: growth inhibition (GI%)
Method in brief: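 NCI-60 single-dose (10^−5 M) screen in MDA-MB-468 with SRB protein-stain read-out after 48 h exposure; cells TCA-fixed and absorbance read at 540 nm. Reported as GI%, with compounds meeting NCI activity criteria then run at five doses (0.01–100 μM).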

| SMILES | inhibition at 10 µM [1] [%] | inhibition at 10 µM [2] [%] | inhibition at 10 µM [3] [%] | inhibition at 10 µM [4] [%] | inhibition at 10 µM [5] [%] | inhibition at 10 µM [6] [%] | inhibition at 10 µM [7] [%] | inhibition at 10 µM [8] [%] | inhibition at 10 µM [9] [%] | inhibition at 10 µM [10] [%] | inhibition at 10 µM [11] [%] | inhibition at 10 µM [12] [%] | cytotoxic activity over the cell lines (in words) [13] | inhibition at 10 µM [14] [%] | inhibition at 10 µM [15] [%] | inhibition at 10 µM [16] [%] | inhibition at 10 µM [17] [%] | inhibition at 10 µM [18] [%] | inhibition at 10 µM [19] [%] | inhibition at 10 µM [20] [%] | further results |
| --- | --- | --- | --- | --- | --- | --- | --- | --- | --- | --- | --- | --- | --- | --- | --- | --- | --- | --- | --- | --- | --- |
| CCc1cccc2cc(C=CC(=O)c3ccc(Br)cc3)c(Cl)nc12 [Compound 3e, 1-(4-Bromophenyl)-3-(2-chloro-8-ethylquinolin-3-yl)prop-2-en-1-one] | < 10 | < 10 | < 10 | < 10 | < 10 | < 10 | < 10 | < 10 | < 10 | < 10 | < 10 | < 10 | low cytotoxic activity | < 10 | < 10 | < 10 | < 10 | < 10 | < 10 | < 10 | inhibition at 10 µM [21]: < 10%; inhibition at 10 µM [22]: < 10%; inhibition at 10 µM [23]: < 10%; inhibition at 10 µM [24]: < 10%; inhibition at 10 µM [25]: < 10%; inhibition at 10 µM [26]: < 10%; inhibition at 10 µM [27]: < 10%; inhibition at 10 µM [28]: < 10%; inhibition at 10 µM [29]: < 10%; inhibition at 10 µM [30]: < 10%; inhibition at 10 µM [31]: < 10% |
| CCc1cccc2cc(-c3cc(-c4ccc(OC)cc4)[nH]c(=S)c3C#N)c(Cl)nc12 [Compound 5a, 4-(2-Chloro-8-ethylquinolin-3-yl)-6-(4-methoxyphenyl)-2-thioxo-1,2-dihydropyridine-3-carbonitrile] | < 10 | 12.7 | < 10 | < 10 | < 10 | 28.8 | < 10 | 12.7 | 14.8 | 23.1 | 12.9 | < 10 | slight cytotoxic activity | < 10 | 13.2 | < 10 | 11.8 | 19.8 | 19.7 | 15.9 | inhibition at 10 µM [21]: < 10%; inhibition at 10 µM [22]: < 10%; inhibition at 10 µM [23]: < 10%; inhibition at 10 µM [24]: 17.6%; inhibition at 10 µM [25]: < 10%; inhibition at 10 µM [26]: 21.6%; inhibition at 10 µM [27]: 10.1%; inhibition at 10 µM [28]: 18.1%; inhibition at 10 µM [29]: < 10%; inhibition at 10 µM [30]: 10.3%; inhibition at 10 µM [31]: 18.7% |
| CCc1cccc2cc(C=CC(=O)c3ccc(F)cc3)c(Cl)nc12 [Compound 3d, 3-(2-Chloro-8-ethylquinolin-3-yl)-1-(4-fluorophenyl)prop-2-en-1-one] | < 10 | < 10 | < 10 | 11 | < 10 | < 10 | < 10 | < 10 | < 10 | < 10 | < 10 | < 10 | low cytotoxic activity | < 10 | < 10 | < 10 | < 10 | < 10 | < 10 | < 10 | inhibition at 10 µM [21]: < 10%; inhibition at 10 µM [22]: < 10%; inhibition at 10 µM [23]: < 10%; inhibition at 10 µM [24]: < 10%; inhibition at 10 µM [25]: < 10%; inhibition at 10 µM [26]: < 10%; inhibition at 10 µM [27]: < 10%; inhibition at 10 µM [28]: < 10%; inhibition at 10 µM [29]: < 10%; inhibition at 10 µM [30]: < 10%; inhibition at 10 µM [31]: < 10% |
